Assay [1] concerns MDA-MB-231 human breast carcinoma cells. As to the kind of experiment: In vitro proliferation inhibition assay (LDH activity, 72 hours). Format: cell-based. The note with it: MDA-MB-231 cells, read-out: % inhibition at a concentration of 10 μM. Here is the method: MDA-MB-231 human breast carcinoma cells (ATCC # HTB26) were cultured in standard growth medium (DMEM), supplemented with 10% heat-inactivated FBS, 10 mM HEPES, 2 mM glutamine, 100 U/mL penicillin, and 100 μg/mL streptomycin) at 37° C. in 5% CO2 (vol/vol) in a humidified incubator. Cells were plated at a density of 3000 cells per well in 100 μL growth medium in a 96 well culture dish. 24 hours after plating, LDH activity was determined using the Cytotox 96 Non-radioactive Cytotoxicity Kit (Promega, Madison, Wis., U.S.A.) to yield T0h LDH values. Briefly, cells were lysed with the addition of 200 μL of Lysis Buffer (included in the Promega Kit) and lysates were further diluted 1:50 in Lysis Buffer. 50 μL of diluted cell lysate were transferred to a fresh 96 well culture plate. The assay was initiated with the addition of 50 μL of substrate per well. Color development was allowed to proceed for 10-15 minutes. The assay was terminated with the addition of 50 μL of Stop Solution (included in Promega kit). Optical densities were determined spectrophotometrically at 490 nm in a 96 well plate reader (SpectraMax 250, Molecular Devices, Sunnyvale, Calif., U.S.A.).
Test compounds were dissolved in 100% DMSO to prepare 10 mM stocks. Stocks were further diluted 1:250 in growth medium to yield working stocks of 40 μM test compound in 0.4% DMSO. Test compounds were serially diluted in growth medium containing 0.4% DMSO to maintain constant DMSO concentrations for all wells. 50 μL of fresh growth medium and 50 μL of diluted test compound were added to each culture well to give a final volume of 200 μL. The cells with and without individual test compounds were incubated for 72 hours at which time LDH activity was measured to yield T72h values. Optionally, the IC50 values can be determined with a least squares analysis program using compound concentration versus percent inhibition. % Inhibition=[1−(T72h test−T0h)/(T72h ctrl−T0h)]×100 wherein • T72h test=LDH activity at 72 hours in the presence of test compound, • T72h ctrl=LDH activity at 72 hours in the absence of test compound and • T0h=LDH activity at Time Zero

The target in assay [2] is T1, PDE 10a (Homo sapiens, UniProt Q9Y233).
T1 construct: Full-length recombinant PDE 10a was expressed in Sf9 insect cells; made in house; host or cells: Sf9 insect cells (Bac-to-Bac baculovirus system); crude lysate supernatant used
T1 sequence (Q9Y233 1-779 isoform Q9Y233-1): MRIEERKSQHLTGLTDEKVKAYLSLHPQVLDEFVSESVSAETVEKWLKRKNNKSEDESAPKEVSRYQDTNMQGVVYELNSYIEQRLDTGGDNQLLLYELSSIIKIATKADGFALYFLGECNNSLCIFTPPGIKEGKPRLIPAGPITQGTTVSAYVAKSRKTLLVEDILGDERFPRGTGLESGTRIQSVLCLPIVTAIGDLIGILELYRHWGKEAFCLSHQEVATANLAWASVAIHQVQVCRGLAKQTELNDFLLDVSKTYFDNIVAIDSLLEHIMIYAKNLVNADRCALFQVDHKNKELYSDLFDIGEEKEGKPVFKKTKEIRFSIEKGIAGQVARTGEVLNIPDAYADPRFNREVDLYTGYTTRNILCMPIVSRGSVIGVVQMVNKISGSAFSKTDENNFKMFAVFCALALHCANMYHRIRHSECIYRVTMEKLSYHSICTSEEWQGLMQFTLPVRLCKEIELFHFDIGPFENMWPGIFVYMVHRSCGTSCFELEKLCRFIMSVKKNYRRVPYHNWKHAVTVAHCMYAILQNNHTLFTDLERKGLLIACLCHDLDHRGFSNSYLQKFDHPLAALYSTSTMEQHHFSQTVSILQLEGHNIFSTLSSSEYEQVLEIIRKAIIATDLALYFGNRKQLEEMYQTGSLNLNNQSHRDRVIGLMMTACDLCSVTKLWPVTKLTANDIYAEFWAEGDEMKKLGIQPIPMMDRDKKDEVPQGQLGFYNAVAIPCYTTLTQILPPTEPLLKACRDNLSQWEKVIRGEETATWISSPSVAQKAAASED
In words: In vitro enzyme inhibition assay (3H-cAMP scintillation proximity assay). To be noted: full-length recombinant PDE 10a, Sf9 cell lysate. Format: biochemical. As to the method: Full-length recombinant PDE 10a was expressed in Sf9 insect cells (Invitrogen, Carlsbad, Calif., U.S.A.) using the Bac-to-Bac™ Baculovirus Expression System (Life Technologies, Gaithersburg, Md., U.S.A.). 48 hours post infection, cells were harvested and resuspended in 20 mL (per 1 L culture) Lysis Buffer (50 mM Tris-HCl, pH 7.4, 50 mM NaCl, 1 mM MgCl2, 1.5 mM EDTA, 10% glycerol plus 20 μL Protease Inhibitor Cocktail Set III [CalBiochem, La Jolla, Calif., U.S.A.]). Cells were sonicated at 4° C. for 1 minute and centrifuged at 10,000 RPM for 30 minutes at 4° C. Supernatant was removed and stored at −20° C. for activity assays.
The test compounds were serially diluted in DMSO using two-fold dilutions to stock concentrations ranging typically from 200 μM to 1.6 μM (final concentrations in the assay range from 4 μM to 0.032 μM). 96-well assay isoplates (Wallac Inc., Atlanta, Ga., U.S.A.) were loaded with 50 μL dilution buffer per well (dilution buffer: 50 mM Tris/HCl pH 7.5, 8.3 mM MgCl2, 1.7 mM EDTA, 0.2% BSA). 2 μL of the serially diluted individual test compounds were added to individual wells,m followed by 25 μL of a 1:25,000 dilution of crude recombinant PDE 10a-containing Sf9 cell lysate (diluted in dilution buffer described above). The enzymatic assay was initiated by addition of 25 μL (0.025 μCi) ^3H cyclic AMP tracer [5′,8-^3H] adenosine 3′,5′-cyclic phosphate (Amersham Pharmacia Biotech., Piscataway, N.J., U.S.A.) that was diluted 1:1000 in assay buffer (assay buffer: 50 mM Tris/HCl pH 7.5, 8.3 mM MgCl2, 1.7 mM EDTA). Reactions were incubated at room temperature for 60 minutes and terminated by addition of 25 μL of 18 mg/mL Yttrium Scintillation Proximity Beads (Amersham Pharmacia Biotech., Piscataway, N.J., U.S.A.). Plates were sealed and incubated at room temperature for 60 minutes. Plates were read for 30 seconds/well using a Microbeta counter (Wallac Inc., Atlanta, Ga., U.S.A.). The IC50 values were determined by plotting compound concentration versus percent inhibition.

SMILES strings stand for the structures. Read-outs that look alike come from different tables or passages of the source.

For `CCOC(=O)c1c(-c2cccc(N)c2)c(C)n2c1-c1cc(OC)c(OC)cc1CC2` [(part a) 28], in assay [1] (Examples of part a (Table 2a)), the inhibition at 10 µM was determined as 93%. In assay [2] (Examples of part a (Table 1a)), the IC50 was determined as 110 nM.
As to `CCOC(=O)c1c(-c2cc(C)c(O)c(C)c2)c(C)n2c1-c1cc(OC)c(OC)cc1CC2` [(part a) 1], the inhibition at 10 µM in assay [1] (Examples of part a (Table 2a)) is 93%. Further, the IC50 in assay [2] (Examples of part a (Table 1a)) came out at 30 nM.
With `CCOC(=O)c1c(-c2cccc(N(C)C)c2)c(C)n2c1-c1cc(OC)c(OC)cc1CC2` [(part a) 10], in assay [1] (Examples of part a (Table 2a)), the inhibition at 10 µM is 93%. The IC50 in assay [2] (Examples of part a (Table 1a)) was 42 nM.
On to `CCOC(=O)c1c(-c2cc(O)cc(O)c2)c(C)n2c1-c1cc(OC)c(OC)cc1CC2` [(part b) 1], for which the inhibition at 10 µM in assay [1] (Examples of part b (Table 2b)) amounted to 89%. Further, the IC50 in assay [2] (Examples of part b (Table 1b)) stood at 110 nM.

Values taken from patent US6930114B2, “Pyrrolo (2.1a)dihydroisoquinolines and their use as phosphodiesterase 10a inhibitors” (Bayer Pharmaceuticals Corporation, priority 2000, dated 2005).
